Test [1] deals with Tyrosine-protein kinase JAK2 (Homo sapiens, UniProt O60674).
Description: Inhibition of GST-tagged recombinant human JAK2 expressed in baculovirus using TK-substrate-biotin as substrate preincubated for 5 mins followed by substrate addition after 30 mins by HTRF assay
The species named for a further test is Homo sapiens. Kind of test: Selectivity ratio of IC50 for human JAK3 expressed in baculovirus to IC50 for human JAK2 expressed in baculovirus.
The target in test [2] is T1, Tyrosine-protein kinase JAK3 (Homo sapiens, UniProt P52333).
T1 sequence (P52333 whole entry): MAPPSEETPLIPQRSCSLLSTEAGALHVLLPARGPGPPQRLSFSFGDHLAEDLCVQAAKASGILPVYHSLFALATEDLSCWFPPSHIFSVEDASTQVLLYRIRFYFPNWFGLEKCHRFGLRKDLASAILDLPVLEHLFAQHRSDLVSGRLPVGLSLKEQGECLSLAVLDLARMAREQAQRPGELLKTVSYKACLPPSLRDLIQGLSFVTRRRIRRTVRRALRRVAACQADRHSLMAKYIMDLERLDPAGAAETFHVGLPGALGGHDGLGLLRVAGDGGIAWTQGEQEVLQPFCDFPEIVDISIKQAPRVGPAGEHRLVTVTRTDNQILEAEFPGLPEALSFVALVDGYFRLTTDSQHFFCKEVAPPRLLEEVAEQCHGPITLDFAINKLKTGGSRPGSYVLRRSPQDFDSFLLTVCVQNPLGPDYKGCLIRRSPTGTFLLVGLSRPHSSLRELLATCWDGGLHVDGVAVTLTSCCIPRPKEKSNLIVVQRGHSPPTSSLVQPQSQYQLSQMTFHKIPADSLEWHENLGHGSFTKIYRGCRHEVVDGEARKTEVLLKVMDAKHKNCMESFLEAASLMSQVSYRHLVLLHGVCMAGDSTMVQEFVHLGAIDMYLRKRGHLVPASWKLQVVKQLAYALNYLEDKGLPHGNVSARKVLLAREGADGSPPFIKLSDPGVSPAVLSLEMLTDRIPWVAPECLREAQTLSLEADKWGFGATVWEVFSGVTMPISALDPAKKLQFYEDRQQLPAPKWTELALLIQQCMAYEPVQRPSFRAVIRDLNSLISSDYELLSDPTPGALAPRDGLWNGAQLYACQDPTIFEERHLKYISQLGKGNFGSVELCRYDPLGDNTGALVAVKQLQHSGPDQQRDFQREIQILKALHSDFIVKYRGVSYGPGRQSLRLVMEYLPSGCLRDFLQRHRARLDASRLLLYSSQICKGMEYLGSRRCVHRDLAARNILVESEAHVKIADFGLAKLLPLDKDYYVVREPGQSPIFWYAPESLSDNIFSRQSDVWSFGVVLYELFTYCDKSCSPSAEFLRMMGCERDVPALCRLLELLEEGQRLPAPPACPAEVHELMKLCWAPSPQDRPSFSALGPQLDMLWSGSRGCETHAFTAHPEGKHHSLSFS
Description: Inhibition of GST-tagged recombinant human cytoplasmic JAK3 expressed in baculovirus using TK-substrate-biotin as substrate preincubated for 5 mins followed by substrate addition after 30 mins by HTRF assay

For test [3], the target named is Tyrosine-protein kinase JAK2 (Homo sapiens, UniProt O60674, V617F).
Sequence of Tyrosine-protein kinase JAK2 (Homo sapiens, UniProt O60674, V617F) (O60674 whole entry V617F): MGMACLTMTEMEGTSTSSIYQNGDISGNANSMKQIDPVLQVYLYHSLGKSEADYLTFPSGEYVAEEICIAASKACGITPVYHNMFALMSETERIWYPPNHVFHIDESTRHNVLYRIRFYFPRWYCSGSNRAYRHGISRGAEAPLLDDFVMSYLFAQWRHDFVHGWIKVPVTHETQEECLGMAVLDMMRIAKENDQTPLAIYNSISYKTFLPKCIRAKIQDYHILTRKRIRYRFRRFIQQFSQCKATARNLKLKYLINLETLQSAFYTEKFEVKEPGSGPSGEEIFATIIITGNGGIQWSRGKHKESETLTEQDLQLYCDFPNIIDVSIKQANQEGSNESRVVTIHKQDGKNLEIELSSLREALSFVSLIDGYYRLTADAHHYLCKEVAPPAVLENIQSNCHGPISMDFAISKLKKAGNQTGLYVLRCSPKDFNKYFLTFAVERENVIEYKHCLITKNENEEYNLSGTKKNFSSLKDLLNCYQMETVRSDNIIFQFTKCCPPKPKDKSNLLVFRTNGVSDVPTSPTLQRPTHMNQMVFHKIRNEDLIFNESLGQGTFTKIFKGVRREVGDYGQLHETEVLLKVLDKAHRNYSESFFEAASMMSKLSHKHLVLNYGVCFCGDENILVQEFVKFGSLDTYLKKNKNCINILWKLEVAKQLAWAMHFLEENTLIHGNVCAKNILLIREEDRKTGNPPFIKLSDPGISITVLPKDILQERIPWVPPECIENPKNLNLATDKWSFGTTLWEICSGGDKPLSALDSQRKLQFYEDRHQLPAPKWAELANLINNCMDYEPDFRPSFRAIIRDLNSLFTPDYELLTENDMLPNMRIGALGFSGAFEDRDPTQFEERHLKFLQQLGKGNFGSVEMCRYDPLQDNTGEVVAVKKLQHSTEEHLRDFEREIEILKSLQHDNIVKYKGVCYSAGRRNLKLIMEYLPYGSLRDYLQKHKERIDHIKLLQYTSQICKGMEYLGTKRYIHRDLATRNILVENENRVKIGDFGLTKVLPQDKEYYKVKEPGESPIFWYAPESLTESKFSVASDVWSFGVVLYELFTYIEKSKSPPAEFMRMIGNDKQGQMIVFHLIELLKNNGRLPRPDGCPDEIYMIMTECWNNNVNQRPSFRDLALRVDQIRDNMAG
Test [4] has as its target Tyrosine-protein kinase SYK (Homo sapiens, UniProt P43405). Kind of test: Inhibition of SYK (unknown origin).

For orientation: IC50 means the concentration at which inhibition is half-maximal. Higher therefore signals a need for much substance.

Sequence of Tyrosine-protein kinase JAK2 (Homo sapiens, UniProt O60674) (O60674 whole entry): as the sequence (O60674 whole entry V617F) above, with F617V counted along it

As to `N#Cc1ccc2oc(-c3nc(Nc4ccc(N5CCNCC5)cc4)ncc3C(F)(F)F)cc2c1`, the IC50 in test [1] came out at 137 nM; in test [2], 202 nM. For the same compound, the Ratio IC50 in the test listed under Homo sapiens was found to be 1.5.
Compound `CN1CCN(c2ccc(Nc3nccc(-c4cc5c(o4)CCN(S(C)(=O)=O)C5)n3)cc2)CC1` came in with an IC50 in test [2] of 204 nM.
For the compound `CN1CCN(c2ccc(Nc3nccc(-c4cc5c(o4)CCN(C(=O)CC#N)C5)n3)cc2)CC1`, the concentration for half-maximal inhibition (IC50) in test [1] is 53.7 nM; in test [3] it was 7440 nM; in test [2] it was 136 nM. Also, the Ratio IC50 in the test listed under Homo sapiens amounted to 2.5.
For `Cc1cnc(Nc2ccc(N3CCOCC3)cc2)nc1-c1cc2cc(C#N)ccc2o1`, the IC50 in test [1] was 10.4 nM; in test [3], 3090 nM; in test [2] it was 364 nM. Further, the Ratio IC50 in the test listed under Homo sapiens was 35.
Turning to `Cc1cnc(Nc2ccc(N3CCOCC3)cc2)nc1-c1cc2cc(COCC(F)(F)F)ccc2o1`, the half-inhibitory concentration (IC50) in test [1] was 25.7 nM; in test [2] it was 836 nM. In the test listed under Homo sapiens, the Ratio IC50 was 32.5.
Take `Cc1cnc(Nc2ccc(N3CCOCC3)cc2)nc1-c1cc2c(o1)CCN(S(C)(=O)=O)C2`: the concentration for half-maximal inhibition (IC50) was 0.7 nM in test [1], 1250 nM in test [3], 49.8 nM in test [4] and 23.2 nM in test [2]. The Ratio IC50 in the test filed under Homo sapiens stood at 33.1.
With `N#CCC(=O)N1CCc2oc(-c3ccnc(Nc4ccc(N5CCOCC5)cc4)n3)cc2C1`, the IC50 in test [1] came to 13.2 nM; in test [3] it was 5520 nM; in test [2], 140 nM. In addition, in the test filed under Homo sapiens, the Ratio IC50 was determined as 10.6.
For the compound `CC1CC(C)CN(c2ccc(Nc3ncc(C(F)(F)F)c(-c4cc5ccc(C#N)cc5o4)n3)cc2)C1` (stereo not drawn), the IC50 in test [1] stood at 7090 nM; in test [2], 5170 nM. For the same compound, in the test filed under Homo sapiens, the Ratio IC50 came out at 0.7.
For the compound `CS(=O)(=O)N1CCc2oc(-c3ccnc(Nc4ccc(N5CCOCC5)cc4)n3)cc2C1`, the results for the IC50 in test [1] and in test [2] were 42.9 nM and 226 nM, respectively. In addition, the Ratio IC50 in the test listed under Homo sapiens was found to be 5.3.
In the case of `CS(=O)(=O)N1CCc2oc(-c3ccnc(Nc4ccc(OCCN5CCCC5)cc4)n3)cc2C1`, the concentration for half-maximal inhibition (IC50) in test [1] is 164 nM; in test [3] it was 1260 nM; in test [2], 501 nM. Further, in the test listed under Homo sapiens, the Ratio IC50 was found to be 3.1.
For the compound `Cc1cnc(Nc2ccc(/C=C/C(=O)NO)cc2)nc1-c1cc2ccccc2o1`, the IC50 was 226 nM in test [1] and 1580 nM in test [2]. Besides, the Ratio IC50 in the test listed under Homo sapiens is 7.
In the same order, the values of `Cc1cnc(Nc2ccc(OCC(=O)O)cc2)nc1-c1cc2ccccc2o1` are 16.6 nM, 359 nM and 21.7.
On the same counts, the results for `CCOC(=O)COc1cccc(Nc2ncc(C)c(-c3cc4ccccc4o3)n2)c1` are 18.9 nM, 87.6 nM and 4.6.
On the same counts, the results for `CS(=O)(=O)N1CCc2oc(-c3nc(Nc4ccc(OCCN5CCCC5)cc4)ncc3F)cc2C1` are 55.4 nM, 176 nM and 3.2.
As for `COc1cc(Nc2ncc(F)c(-c3cc4c(o3)CCN(S(C)(=O)=O)C4)n2)cc(OC)c1OC`, the figures for the IC50 in test [1] and in test [2] were 9.4 nM and 178 nM, respectively. Also, the Ratio IC50 in the test filed under Homo sapiens worked out at 18.9.
On the same counts, the results for `CCOC(=O)COc1ccc(Nc2ncc(C)c(-c3cc4ccccc4o3)n2)cc1` are 324 nM, 1200 nM and 3.7.
`Cc1cnc(Nc2ccc(N3CCOCC3)cc2)nc1-c1cc2ccccc2o1`: in test [2], half-maximal inhibition (IC50) required 183 nM.

The record behind these values is ChEMBL document CHEMBL3867460, “Identification of 4-(2-furanyl)pyrimidin-2-amines as Janus kinase 2 inhibitors” (Bioorg Med Chem, 2017).
